Test results from patent publication US9255094B2, “Pyrido[4,3-B]indoles and methods of use” (Medivation Technologies, Inc., priority 2009, dated 2016).

These molecules were tested against T1, rat adrenergic α1B receptor (Rattus norvegicus, UniProt P15823) (assay: Adrenergic α1B radioligand binding assay ([3H]Prozosin)). Settings: compound at 0.1 μM; 0.25 nM [3H]Prozosin; Wistar Rat liver; read-out: Percent Inhibition of ligand binding, Adrenergic (0.1 μM) a1B.
T1 construct: from tissue; host or cells: Wistar Rat liver
T1 sequence (P15823 1-515): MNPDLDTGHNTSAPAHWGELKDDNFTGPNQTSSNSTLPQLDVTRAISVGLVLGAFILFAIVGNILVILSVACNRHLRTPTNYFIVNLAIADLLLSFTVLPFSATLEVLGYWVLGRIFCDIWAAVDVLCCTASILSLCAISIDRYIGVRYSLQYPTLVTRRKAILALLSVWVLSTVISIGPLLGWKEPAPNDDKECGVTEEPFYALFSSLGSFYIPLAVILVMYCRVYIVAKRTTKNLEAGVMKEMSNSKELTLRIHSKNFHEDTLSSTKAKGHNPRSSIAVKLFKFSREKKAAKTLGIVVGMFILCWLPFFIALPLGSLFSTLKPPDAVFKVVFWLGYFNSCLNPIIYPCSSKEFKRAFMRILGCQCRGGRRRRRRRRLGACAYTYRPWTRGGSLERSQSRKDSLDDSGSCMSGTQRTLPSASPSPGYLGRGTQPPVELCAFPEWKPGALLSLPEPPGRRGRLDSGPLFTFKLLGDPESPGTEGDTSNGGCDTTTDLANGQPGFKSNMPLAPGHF
Procedure: To evaluate in radioligand binding assays the activity of compounds of the invention, rat adrenergic α1B receptor obtained from Wistar Rat liver (Garcia-S'ainz, J. A. et al., Biochem. Biophys. Res. Commun. 186:760, 1992; Michel A. D. et al., Br. J. Pharmacol. 98:883, 1989) in a modified Tris-HCl buffer (50 mM Tris-HCl buffer, pH 7.4, 0.5 mM EDTA) is used. Compounds of the invention are incubated with 0.25 nM [^3H]Prozosin for 60 min at 25° C. Non-specific binding is estimated in the presence of 10 μM phentolamine. Receptor proteins are filtered and washed, the filters are then counted to determine [^3H]Prozosin specifically bound. Compounds are screened at 1 μM or lower, using 1% DMSO as vehicle. Compounds of the invention are tested in this biochemical assay and percent inhibition of specific binding is determined.

Row | Compound | inhibition at 0.1 µM [%]
1 | CCCC[C@](O)(Cn1c2c(c3cc(Cl)ccc31)CN(C)CC2)c1ccc(F)cc1 [Compound 1-61, (R)-1-(8-Chloro-2-methyl-3,4-dihydro-1H-pyrido[4,3-b]indol-5(2H)-yl)-2-(4-fluorophenyl)hexan-2-ol] | 0
2 | CN1CCc2c(c3cc(Cl)ccc3n2CC(O)c2ccncc2)C1 (stereo not shown) [Compound 1-11, 2-(8-chloro-2-methyl-3,4-dihydro-1H-pyrido[4,3-b]indol-5(2H)-yl)-1-(pyridin-4-yl)ethanol] | 60
3 | Cc1ccc2c(c1)c1c(n2CCc2ccc(C)nc2)CCN(CC(F)(F)F)C1 [Compound 1-65, 8-methyl-5-(2-(6-methylpyridin-3-yl)ethyl)-2-(2,2,2-trifluoroethyl)-2,3,4,5-tetrahydro-1H-pyrido[4,3-b]indole] | -4
4 | CC[C@](O)(Cn1c2c(c3cc(C)ccc31)CN(C)CC2)c1ccc(F)cc1 [Compound 1-60, (R)-1-(2,8-Dimethyl-3,4-dihydro-1H-pyrido[4,3-b]indol-5(2H)-yl)-2-(4-fluorophenyl)butan-2-ol] | -2
5 | CCCC[C@@](O)(Cn1c2c(c3cc(Cl)ccc31)CN(C)CC2)c1ccc(F)cc1 [Compound 1-67, (S)-1-(8-chloro-2-methyl-3,4-dihydro-1H-pyrido[4,3-b]indol-5(2H)-yl)-2-(4-fluorophenyl)hexan-2-ol] | -2
6 | CC[C@](O)(Cn1c2c(c3cc(C)ccc31)CN(C)CC2)c1ccncc1 [Compound 1-63, (R)-1-(2,8-Dimethyl-3,4-dihydro-1H-pyrido[4,3-b]indol-5(2H)-yl)-2-(pyridine-4-yl)butan-2-ol] | 5
7 | CN1CCc2c(c3cc(Cl)c(Cl)cc3n2CC(C)(O)c2ccncc2)C1 (stereo not shown) [Compound 1-17, 1-(7,8-dichloro-2-methyl-3,4-dihydro-1H-pyrido[4,3-b]indol-5(2H)-yl)-2-(pyridin-4-yl)propan-2-ol] | 55
8 | COc1ccc([C@](C)(O)Cn2c3c(c4cc(C)ccc42)CN(C)CC3)cc1 [Compound 1-20, (S)-1-(2,8-Dimethyl-3,4-dihydro-1H-pyrido[4,3-b]indol-5(2H)-yl)-2-(4-methoxyphenyl)propan-2-ol] | 63
9 | CC[C@@](O)(Cn1c2c(c3cc(C)ccc31)CN(C)CC2)c1ccc(F)cc1 [Compound 1-66, (S)-1-(2,8-dimethyl-3,4-dihydro-1H-pyrido[4,3-b]indol-5(2H)-yl)-2-(4-fluorophenyl)butan-2-ol] | 11
10 | Cc1ccc2c(c1)c1c(n2CC(O)c2ccncc2)CCN(C)C1 (stereo not shown) [Compound 1-8, 2-(2,8-dimethyl-3,4-dihydro-1H-pyrido[4,3-b]indol-5(2H)-yl)-1-(pyridin-4-yl)ethanol] | 54
